Results as given in patent US20250255845A1, “USE OF INTERLEUKIN (IL)-17A INHIBITOR IN PREPARATION OF MEDICAMENT FOR TREATING INFLAMMATORY DISEASE” (Xiangnan University, priority 2024, published 2025).

Legend:
[1] = system: STAT3; experiment: Western blot of STAT3 in LPS-induced RAW264.7 cells; format: cell-based, mouse; conditions: 5-40 μM, among treatment groups; P>0.05
Description: (§1) RAW264.7 cell culture: mouse mononuclear macrophages (RAW264.7, ATCC) are cultured in a complete medium containing 10% fetal bovine serum (FBS), 1% double antibodies (penicillin and streptomycin), and 89% DMEM at 37° C. and 5% CO2. In this experiment, RAW264.7 cells from passages 3 to 8 are used for related test.
(§2) LPS (100 ng/ml) is added for stimulation, with or without Tan, and the cell supernatant is collected to detect the contents of NO, IL-23, IL-17A, TNF-α, and IL-6 in the cell supernatant. The cell lysate is collected and the protein expressions (STAT3, p-STAT3 (Ser727), and p-STAT3 (Tyr705)) are detected by Western blot. Total cell RNA is extracted and real-time fluorescence quantitative polymerase chain reaction (PCR) is conducted to detect the expression levels of IL-23, IL-17A, TNF-α, and IL-6 mRNA.
(§3) RAW264.7 cells in the logarithmic growth phase were inoculated in 100 mm culture dishes, and the cell density was adjusted to 1.6×10^6 cells/dish. […] The supernatant was collected by centrifugation at 4° C., 12,000 rpm for 5 min, and the protein concentration was determined by BCA method. […] Enhanced Chemiluminescence (ECL) color development was used for detection, and protein band quantification was performed using Image J software.

[2] = system: TNF-α; experiment: ELISA of LPS-induced TNF-α secretion in RAW264.7 cells; format: cell-based, mouse
Description: as §1, §2
RAW264.7 cells in the logarithmic growth phase were inoculated into a 6-well plate and the cell density was adjusted to 5.0×10^5 cells/well. After culturing for 24 h, the cells were stably adhered to the plate. The original medium was removed and different concentrations (5, 10, 20, 40 μM) of Tan were added to allow pretreatment for 1 h. […] The OD450 nm value of the cell supernatant was detected according to the instructions of the TNF-α and IL-6 ELISA kits, and the content of pro-inflammatory factors (TNF-α and IL-6) in the cell supernatant was calculated.

[3] = system: NO; experiment: Griess assay of LPS-induced NO production in RAW264.7 cells; format: cell-based, mouse
Description: as §1, §2
RAW264.7 cells in the logarithmic growth phase were inoculated into a 48-well plate and the cell density was adjusted to 1.0×10^5 cells/well. After cultured for 24 h, the cells were stably adhered to the plate. The original medium was removed and different concentrations (5, 10, 20, 40 μM) of Tan were added to allow pretreatment for 1 h. […] OD540 nm value of the cell supernatant was detected according to the instructions of a Griess kit, and the NO content in the cell supernatant was calculated.

[4] = system: p-STAT3 (Tyr 705); experiment: Western blot of p-STAT3 (Tyr 705) in LPS-induced RAW264.7 cells; format: cell-based, mouse
Description: as §1, §2, §3

[5] = system: IL-23 mRNA; experiment: Real-time fluorescence quantitative PCR, LPS-induced IL-23 mRNA in RAW264.7 cells; format: cell-based, mouse
Description: as §1, §2
(§4) RAW264.7 cells were inoculated into 6-well plate and the cell density was adjusted to 5.0×10^6 cells/well. […] The fluorescence intensity of each sample was detected according to the instructions of the real-time fluorescence quantitative PCR kit and specific primers (Table 1) (cycle conditions: enzyme activation 95° C. for 3 min, 1 cycle; denaturation 95° C. for 15 s, annealing/extension 60° C. for 1 min, 40 cycles). The mRNA expression level of each group was normalized with the GAPDH expression level, and the relative expression of mRNA was calculated using the 2^−ΔΔCt method.

[6] = system: endothelial cells; conditions: CN101947215A; cited from earlier work
[7] = system: IL-6 mRNA; experiment: Real-time fluorescence quantitative PCR, LPS-induced IL-6 mRNA in RAW264.7 cells; format: cell-based, mouse
Description: as §1, §2, §4

[8] = system: RAW264.7 cells; experiment: CCK-8 cell viability / cytotoxicity; format: cell-based, mouse; conditions: 24 h
Description: RAW264.7 cell culture: mouse mononuclear macrophages (RAW264.7, ATCC) are cultured in a complete medium containing 10% fetal bovine serum (FBS), 1% double antibodies (penicillin and streptomycin), and 89% DMEM at 37° C. and 5% CO2. In this experiment, RAW264.7 cells from passages 3 to 8 are used for related test. RAW264.7 cells in the logarithmic growth phase were inoculated into a 96-well plate and the cell density was adjusted to 5×10^3 cells/well. After cultured for 24 h, the cells were stably adhered to the wall. The original complete medium was removed and different concentrations of Tan (5, 10, 20, 40, 80, 160, 320 μM) were added to allow treatment with or without LPS (100 ng/ml) for 24 h. Then, 10 μL of CCK-8 solution was added to each well and incubated at 37° C. for 1 h. The OD value of each sample at 450 nm was detected by a microplate reader, and the cell viability was calculated.

[9] = 5-40 μM, 24 h, vs LPS group, P<0.001, dose-dependent
[10] = 5-40 μM, 24 h, vs LPS, P<0.001, dose-dependent

COc1ccc(-c2cc(=O)c3c(OC)c(OC)c(OC)c(OC)c3o2)cc1 [Tan, tangeretin]
STAT3 protein expression [1]: no statistically significant change | inhibitory effect on TNF-α secretion compared with positive control Clo ([2]; 40 μM): comparable to that of the positive control | TNF-α level in the cell supernatant [2, 9]: significantly decreased | inhibitory effect on NO compared with positive control Clo ([3]; 40 μM, 24 h): comparable to that of the positive control | NO content in the cell supernatant [3, 9]: significantly reduced | inhibitory effect on the production of NO ([3]; 48 h): strong inhibitory effect | suppression of STAT3 phosphorylation (Tyr 705) compared with positive control Clo ([4]; 40 μM): comparable efficacy to the positive control | expression of p-STAT3 (Tyr 705) protein ([4]; 5-40 μM, vs LPS group, P<0.001, dose-dependent): inhibited | inhibitory effect on IL-23 mRNA compared with positive control Clo ([5]; 40 μM): comparable to that of the positive control Clo | relative expression level of IL-23 mRNA [5, 10]: significantly decreased | proliferation of endothelial cells / angiogenesis [6]: inhibit the proliferation of endothelial cells | inhibitory effect on IL-6 mRNA compared with positive control Clo ([7]; 40 μM): comparable to that of the positive control Clo | relative expression level of IL-6 mRNA [7, 10]: significantly decreased | toxicity to RAW264.7 cells (cell viability) ([8]; 0-40 μM, P>0.05): did not produce significant toxicity | cell viability of RAW264.7 cells ([8]; Tan concentration higher than 40 μM, P<0.05): decreased
